Test results as given in ChEMBL document CHEMBL6096723, “Discovery of novel capsaicin analogs as TRPV1 inhibitors for the treatment of idiopathic pulmonary fibrosis” (Eur J Med Chem, 2025).
Active and inactive are the calls of the source. The calls are words filed in the database; no cut-off is given here.

Legend:
[1] = MRT(0 to infinity) in Sprague-Dawley rat at 50 mg/kg, po measured upto 4 hrs by UPLC-MS/MS analysis; assay type: ADME, organism-based; conditions: in vivo
[2] = tested on: Mus musculus; experiment: Anti-pulmonary fibrotic activity against bleomycin induced pulmonary fibrosis mouse model assessed as reduction in alveolar structure at 10 to 20 mg/kg, ip administered every alternative day for 8 to 21 days after modeling; assay type: functional, organism-based; conditions: dose 10-20 mg/kg, time 8-21 day
[3] = AUMC(0 to infinity) in Sprague-Dawley rat at 50 mg/kg, iv measured upto 4 hrs by UPLC-MS/MS analysis; assay type: ADME, organism-based; conditions: in vivo
[4] = tested on: Mus musculus; experiment: Anti-fibrotic activity against bleomycin-induced pulmonary fibrosis mouse model assessed as increase in survival of mouse at 10 to 20 mg/kg, ip administered every alternative day for 8 to 21 days after modeling; assay type: functional, organism-based; conditions: dose 10-20 mg/kg, time 8-21 day
[5] = AUC(0 to t) in Sprague-Dawley rat at 50 mg/kg, ip measured upto 4 hrs by UPLC-MS/MS analysis; assay type: ADME, organism-based; conditions: in vivo
[6] = AUMC(0 to t) in Sprague-Dawley rat at 50 mg/kg, po measured upto 4 hrs by UPLC-MS/MS analysis; assay type: ADME, organism-based; conditions: in vivo
[7] = Half life in Sprague-Dawley rat at 50 mg/kg, po measured upto 4 hrs by UPLC-MS/MS analysis; assay type: ADME, organism-based; conditions: in vivo
[8] = AUC(0 to infinity) in Sprague-Dawley rat at 50 mg/kg, po measured upto 4 hrs by UPLC-MS/MS analysis; assay type: ADME, organism-based; conditions: in vivo
[9] = Acute toxicity in Kunming male mouse assessed as Creatine kinase (CK) level at 180 mg/kg, ip measured after 14 days (reference value: 710.6 U/L); assay type: organism-based; conditions: in vivo, 336 h, time 14 day
[10] = tested on: NIH3T3; experiment: Anti-fibrotic activity in mouse NIH3T3 cells assessed as inhibition of TGFbeta-induced total collagen production at 10 uM measured after 48 hrs by Sirius Red Collagen Detection Kit relative to control; assay type: functional
[11] = tested on: Mus musculus; experiment: Anti-pulmonary fibrotic activity against bleomycin-induced pulmonary fibrosis mouse model assessed as inhibition of alpha-SMA expression in lung tissue at 10 to 20 mg/kg, ip administered every alternative day for 8 to 21 days after modeling by immunohistochemical staining based assay; assay type: functional, organism-based; conditions: dose 10-20 mg/kg, time 8-21 day
[12] = VRT(0 to t) in Sprague-Dawley rat at 50 mg/kg, iv measured upto 4 hrs by UPLC-MS/MS analysis; assay type: ADME, organism-based; conditions: in vivo
[13] = tested on: Mus musculus; experiment: Anti-fibrotic activity against bleomycin-induced pulmonary fibrosis mouse model assessed as decrease in hydroxyproline level in lung tissue at 10 to 20 mg/kg, ip administered every alternative day for 8 to 21 days after modeling […]; assay type: functional, organism-based; conditions: dose 10-20 mg/kg, time 8-21 day
[14] = tested on: Rattus norvegicus; experiment: Cz in Sprague-Dawley rat at 50 mg/kg, iv measured upto 4 hrs by UPLC-MS/MS analysis; assay type: ADME, organism-based; conditions: in vivo
[15] = Clearance in Sprague-Dawley rat at 50 mg/kg, po measured upto 4 hrs by UPLC-MS/MS analysis; assay type: ADME, organism-based; conditions: in vivo
[16] = Acute toxicity in Kunming female mouse assessed as Aspartate aminotransferase (AST) level at 180 mg/kg, ip measured after 14 days (reference value: 116.2 U/L); assay type: organism-based; conditions: in vivo, 336 h, time 14 day
[17] = Acute toxicity in Kunming female mouse assessed as Creatinine (CREA) level at 180 mg/kg, ip measured after 14 days (reference value: 15.4 micromol/L); assay type: organism-based; conditions: in vivo, 336 h, time 14 day
[18] = tested on: NIH3T3; experiment: Inhibition of TGFbeta-induced ERK1/2 phosphorylation in mouse NIH3T3 cells at 1 to 10 uM by Western blot analysis; assay type: functional, cell-based; conditions: dose 1-10 µM
[19] = Acute toxicity in Kunming male mouse assessed as Aspartate aminotransferase (AST) level at 180 mg/kg, ip measured after 14 days (reference value: 116.7 U/L); assay type: organism-based; conditions: in vivo, 336 h, time 14 day
[20] = tested on: Rattus norvegicus; experiment: Cz in Sprague-Dawley rat at 50 mg/kg, ip measured upto 4 hrs by UPLC-MS/MS analysis; assay type: ADME, organism-based; conditions: in vivo
[21] = Clearance in Sprague-Dawley rat at 50 mg/kg, iv measured upto 4 hrs by UPLC-MS/MS analysis; assay type: ADME, organism-based; conditions: in vivo
[22] = tested on: L929; experiment: Anti-migratory activity in mouse L929 cells assessed as inhibition of TGFbeta1-induced migration at 10 uM measured after 24 hrs by Wound healing assay; assay type: functional, cell-based
[23] = Acute toxicity in Kunming male mouse assessed as Uric acid (UA) level at 180 mg/kg, ip measured after 14 days (reference value: 264.8 micromol/L); assay type: organism-based; conditions: in vivo, 336 h, time 14 day
[24] = AUMC(0 to t) in Sprague-Dawley rat at 50 mg/kg, iv measured upto 4 hrs by UPLC-MS/MS analysis; assay type: ADME, organism-based; conditions: in vivo
[25] = Cytotoxicity against mouse NIH3T3 cells assessed as survival rate at 10 uM measured after 24 hrs by CCK-8 assay relative to control; assay type: toxicity, cell-based; conditions: read-out: Survival
[26] = Clearance in Sprague-Dawley rat at 50 mg/kg, ip measured upto 4 hrs by UPLC-MS/MS analysis; assay type: ADME, organism-based; conditions: in vivo
[27] = VRT(0 to infinity) in Sprague-Dawley rat at 50 mg/kg, ip measured upto 4 hrs by UPLC-MS/MS analysis; assay type: ADME, organism-based; conditions: in vivo
[28] = biological target: Transient receptor potential cation channel subfamily V member 1 (Homo sapiens) (UniProt Q8NER1); experiment: Inhibition of TRPV1 (unknown origin) overexpressed in HEK-293T cells assessed as reduction in calcium level measured after 24 hrs by Fluo-4 calcium ion detection kit; assay type: cell-based
[29] = Half life in Sprague-Dawley rat at 50 mg/kg, ip measured upto 4 hrs by UPLC-MS/MS analysis; assay type: ADME, organism-based; conditions: in vivo
[30] = AUMC(0 to t) in Sprague-Dawley rat at 50 mg/kg, ip measured upto 4 hrs by UPLC-MS/MS analysis; assay type: ADME, organism-based; conditions: in vivo
[31] = VRT(0 to t) in Sprague-Dawley rat at 50 mg/kg, po measured upto 4 hrs by UPLC-MS/MS analysis; assay type: ADME, organism-based; conditions: in vivo
[32] = MRT(0 to infinity) in Sprague-Dawley rat at 50 mg/kg, iv measured upto 4 hrs by UPLC-MS/MS analysis; assay type: ADME, organism-based; conditions: in vivo
[33] = Acute toxicity in Kunming female mouse assessed as Creatine kinase (CK) level at 180 mg/kg, ip measured after 14 days (reference value: 779.7 U/L); assay type: organism-based; conditions: in vivo, 336 h, time 14 day
[34] = Acute toxicity in Kunming male mouse assessed as Urea level at 180 mg/kg, ip measured after 14 days (reference value: 6.54 mmol/L); assay type: organism-based; conditions: in vivo, 336 h, time 14 day
[35] = Cmax in Sprague-Dawley rat at 50 mg/kg, po measured upto 4 hrs by UPLC-MS/MS analysis; assay type: ADME, organism-based; conditions: in vivo
[36] = tested on: Mus musculus; experiment: Anti-pulmonary fibrotic activity against bleomycin-induced pulmonary fibrosis mouse model assessed as inhibition of Smad3 phosphorylation in lung tissue at 10 to 20 mg/kg, ip administered every alternative day for 8 to 21 days after modeling by immunohistochemical staining based assay; assay type: functional, organism-based; conditions: dose 10-20 mg/kg, time 8-21 day
[37] = VRT(0 to infinity) in Sprague-Dawley rat at 50 mg/kg, iv measured upto 4 hrs by UPLC-MS/MS analysis; assay type: ADME, organism-based; conditions: in vivo
[38] = AUMC(0 to infinity) in Sprague-Dawley rat at 50 mg/kg, po measured upto 4 hrs by UPLC-MS/MS analysis; assay type: ADME, organism-based; conditions: in vivo
[39] = MRT(0 to infinity) in Sprague-Dawley rat at 50 mg/kg, ip measured upto 4 hrs by UPLC-MS/MS analysis; assay type: ADME, organism-based; conditions: in vivo

Sequence of Transient receptor potential cation channel subfamily V member 1 (Homo sapiens) (Q8NER1 whole entry): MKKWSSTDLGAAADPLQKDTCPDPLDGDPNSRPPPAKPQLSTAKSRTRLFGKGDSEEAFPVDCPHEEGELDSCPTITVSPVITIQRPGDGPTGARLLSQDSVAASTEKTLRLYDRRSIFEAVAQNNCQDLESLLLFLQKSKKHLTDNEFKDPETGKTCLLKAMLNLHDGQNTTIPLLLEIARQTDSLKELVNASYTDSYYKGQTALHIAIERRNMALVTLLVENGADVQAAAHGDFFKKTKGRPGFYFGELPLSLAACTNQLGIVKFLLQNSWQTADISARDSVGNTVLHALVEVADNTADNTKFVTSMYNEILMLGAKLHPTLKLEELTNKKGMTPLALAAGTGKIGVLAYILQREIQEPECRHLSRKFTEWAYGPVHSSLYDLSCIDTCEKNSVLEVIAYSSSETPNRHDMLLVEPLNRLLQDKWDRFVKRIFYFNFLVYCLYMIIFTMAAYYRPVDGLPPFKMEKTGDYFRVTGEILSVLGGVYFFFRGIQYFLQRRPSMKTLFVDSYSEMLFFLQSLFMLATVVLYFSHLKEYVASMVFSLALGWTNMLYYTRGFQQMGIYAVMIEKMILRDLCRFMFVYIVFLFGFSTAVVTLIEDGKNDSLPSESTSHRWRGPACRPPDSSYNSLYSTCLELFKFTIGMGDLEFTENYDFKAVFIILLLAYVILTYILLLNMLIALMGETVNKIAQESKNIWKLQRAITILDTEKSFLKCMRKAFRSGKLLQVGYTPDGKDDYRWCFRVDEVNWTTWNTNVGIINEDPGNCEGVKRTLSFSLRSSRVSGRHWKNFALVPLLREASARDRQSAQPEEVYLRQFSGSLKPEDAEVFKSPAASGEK

For O=C(/C=C/c1ccc(O)c(O)c1)CCCCc1ccccc1, the MRT inf [1] was 81 min, the Activity [2] was “Active” and the AUMC [3] was 2122.825 ug/L.hr. The Activity [4] was “Active; Comparable To Nintedanib”, the AUC(0-t) at 4 h [5] was 1100 ng·h/mL and the AUMCt [6] was 121.11 ug/L.hr. The half-life [7] was 51 min, the AUC [8] was 102.37 ng·h/mL and the Activity [9] was 710.6 U/L. The inhibition at 10 µM [10] was 80.7%, the Activity [11] was “Active” and the “VRT(t)” value [12] was 0.569 hr2. The Activity [13] was “Active”, the Cz [14] was 31.67 µg/L and the CL [15] was 3287.7 mL/min/kg. The Activity [16] was 160.5 U/L, the Activity [17] was 16.7 µmol/L and the inhibition [18] was “Active”. It also gave an Activity [19] of 125.2 U/L, a Cz [20] of 0.74 µg/L and a CL [21] of 125 mL/min/kg. For the same compound, the Activity [22] was “Active”, the Activity [23] was 325.4 µmol/L and the AUMCt [24] was 1969.254 ug/L.hr. For the same compound, the viability at 24 h, 10 µM [25] was 99.2%, the CL [26] was 305.45 mL/min/kg and the VRT [27] was 0.72 hr2. For the same compound, the inhibition [28] was “Active”, the half-life [29] was 21 min and the AUMCt [30] was 568.11 ug/L.hr. For the same compound, the “VRT(t)” value [31] was 0.75 hr2, the MRT inf [32] was 47.6 min and the Activity [33] was 1115.7 U/L. The Activity [34] was 9.56 mmol/L, the Cmax [35] was 48.9 ng/mL and the Activity [36] was “Active”. The VRT [37] was 0.779 hr2, the AUMC [38] was 138.748 ug/L.hr and the MRT inf [39] was 34.2 min.
